The results in this text go back to patent US7553868B2, “Thiophene carboxamides as inhibitors of the enzyme IKK-2” (AstraZeneca AB, priority 2003, dated 2009).

One data set concerns the target T1, IKK-2 (Homo sapiens, UniProt O14920).
T1 sequence (O14920 1-756): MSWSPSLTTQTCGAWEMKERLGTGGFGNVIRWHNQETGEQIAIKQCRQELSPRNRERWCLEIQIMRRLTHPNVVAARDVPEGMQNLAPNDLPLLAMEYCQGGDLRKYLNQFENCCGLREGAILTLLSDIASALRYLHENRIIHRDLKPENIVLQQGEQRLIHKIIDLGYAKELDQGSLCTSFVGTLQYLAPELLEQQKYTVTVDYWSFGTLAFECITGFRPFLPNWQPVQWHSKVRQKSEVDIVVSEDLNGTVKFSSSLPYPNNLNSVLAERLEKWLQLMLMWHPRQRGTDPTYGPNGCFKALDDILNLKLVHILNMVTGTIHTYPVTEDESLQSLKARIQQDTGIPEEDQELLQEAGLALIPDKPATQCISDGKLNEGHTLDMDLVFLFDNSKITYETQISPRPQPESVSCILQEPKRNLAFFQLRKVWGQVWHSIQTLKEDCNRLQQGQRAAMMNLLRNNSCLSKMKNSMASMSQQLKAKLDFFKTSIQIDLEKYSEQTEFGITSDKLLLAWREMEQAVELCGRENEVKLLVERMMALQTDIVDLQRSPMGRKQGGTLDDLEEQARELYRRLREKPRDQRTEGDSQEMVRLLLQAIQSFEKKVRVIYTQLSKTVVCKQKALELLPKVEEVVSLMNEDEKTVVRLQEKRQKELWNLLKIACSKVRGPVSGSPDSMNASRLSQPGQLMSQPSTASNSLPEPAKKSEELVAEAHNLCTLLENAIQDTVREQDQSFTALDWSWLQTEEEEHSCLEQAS
The data set is described as follows: IKK-2 filter kinase assay. As to conditions: 1 μM ATP, 1-53 GST-IκB substrate, read-out: Inhibition of IKK-2. It is filed as biochemical. The procedure: IKK-2 Filter Kinase Assay
The test compounds were dissolved to 10 mM in dimethylsulphoxide (DMSO). The compounds were then diluted 1 in 40 in kinase buffer (50 mM Tris, pH 7.4 containing 0.1 mM EGTA, 0.1 mM sodium orthovanadate and 0.1% β-mercaptoethanol). 1 in 3 serial dilutions were made from this solution with 2.5% DMSO in kinase buffer. 20 μl of compound dilution was added to wells of a 96 well plate in duplicate. 20 μl 2.5% DMSO in kinase buffer instead of compound was added to control wells (0% inhibition). […] 10 μl of a mixture of magnesium acetate, unlabelled ATP, and ^33P-labelled ATP was added to each well made such that the final concentration was 10 mM magnesium acetate, 1 μM ATP and 0.1 μCi ^33P ATP. […] The final reaction volume was 50 μl.
The kinase reactions were incubated at 21° C. for 80 minutes and the reaction stopped by precipitating the protein by the addition of an equal volume (50 μl) of 20% trichloroacetic acid (TCA). The precipitate was allowed to form for 10 minutes and then filtered onto a GF/C unifilter 96 well plate. Each filter was washed twice with approximately 1 ml 2% TCA. The filter plate was dried at 30-40° C. for 60 minutes, 20 μl scintillant was added to each well and the plate sealed and radioactivity counted on a Packard Topcount microplate scintillation counter.

The nature of data set [1]: Compound permeability and efflux potential using Caco-2 cell monolayers. It counts as in vitro ADME, human. Further details: Caco-2 Assay Papp: unit not given here. Conditions: human, Caco-2; 10 μM compound, pH 7.4, 120 min at 37° C.; efflux ratio; read-out: Caco-2 Assay Papp (B-A)/Papp(A-B) Ratio. The text has this:
(§1) Assessment of Compound Permeability and Efflux Potential using CACO-2 Cell Monolayers.
(§2) Caco-2 cells are a cell line derived from human colon cancer cells. The Caco-2 cells retain many of the properties of the human gut, including tight junctions and transporter proteins (e.g. pgp transporter), and are used primarily to assess the potential of compounds to be absorbed after oral administration. In this assay protocol, transports in the apical to basolateral direction (A-B direction) as well as in the opposite direction (B-A direction) are determined to assess both permeability and efflux potentials of the test compounds.
(§3) Cells are seeded at a density of 100,000 cells/well onto 1 μm filters within each well of 24-well plates (Beckton-Dickinson, UK) and grown until an intact monolayer of the cells is formed across each well (14 days).
(§4) When ready for use the intactness of the monolayers is assessed using measurement of the Trans-Epithelial Resistance (TEER) within each well. If TEERs are acceptable, each test compound is added to pH 7.4 buffer to a concentration of 10 μM in either the upper (Apical; A) or lower (Basolateral; B) chambers of the individual wells of the 24-well plates in duplicate, resulting in replicate measurements of the permeability of each compound through the monolayers in both the A-B and B-A directions. Four reference compounds are incubated alongside test compounds for quality control purposes (low, medium and high permeability plus one known efflux substrate).
(§5) After mixing, an aliquot of the donor chamber is taken immediately for analysis (TO). The plates are then incubated for 120 min at 37° C., after which a further aliquot is taken from the donor chamber (used to assess recovery over the duration of the experiment), while a similar aliquot is taken from the recipient chamber at this time (T120 sample).
(§6) All sample manipulations are undertaken on a Tecan Genesis RS200 robot.
(§7) All samples are analysed using LC-electrospray MS (both + and − mode), and peak areas used to quantify each test agent.
(§8) From the data obtained the rate of transfer (Papp) of each compound across the monolayer is calculated in either the A-B or B-A directions. From the Papp(A-B) data, the potential human absorption is categorised as LOW (Papp<=[…].cm^2.sec^−1), PARTIAL (Papp>0.5<=2.9×10^6 cm^2.sec^−1) or HIGH (Papp>2.9×10^6.cm^2.sec^−1), while from the Papp(B-A)/Papp(A-B) ratio, the potential for efflux of the test compound is assessed, where a ratio≧5 is categorised as HIGH, and <5 is categorised as LOW.
(In general: Passage across Caco-2 layers is used to estimate intestinal permeability.)

For a further data set, the system named is Caco-2 cell monolayers. The data set is described as above. It is filed as in vitro ADME, human. More on the design: Caco-2 Assay Papp: unit not given here. Conditions: 10 μM compound, pH 7.4, 120 min at 37° C.; Papp(A-B) used for absorption category.
Text: as §1, §2, §3, §4, §5, §6, §7, §8

Molecules are shown by their SMILES.

On to `CN1CCC(Oc2ccccc2-c2cc(C(N)=O)c(NC(N)=O)s2)C1` (stereo not drawn) [2-[(Aminocarbonyl)amino]-5-(2-[{1-methylpyrrolidin-3-yl}oxy]phenyl)-3-thiophenecarboxamide, reference compound], for which the IC50 on IKK-2 is 10 nM. Further, the efflux ratio at 120 min, 10 μM in data set [1] came out at 8.14. In the data set with Caco-2 cell monolayers, the “Caco-2 Assay Papp” value is listed as 2.19.

For `COCCN1CCC(Oc2ccccc2-c2cc(C(N)=O)c(NC(N)=O)s2)C1` (stereo not drawn) [2-[(Aminocarbonyl)amino]-5-(2-{[1-(2-methoxyethyl)-pyrrolidin-3-yl]oxy}phenyl)-3-thiophenecarboxamide, reference compound], on IKK-2, the IC50 worked out at 30 nM. Further, the efflux ratio at 120 min, 10 μM in data set [1] was 5.88. The “Caco-2 Assay Papp” value in the data set on Caco-2 cell monolayers was 1.86.

Take `NC(=O)Nc1sc(-c2ccccc2OCCN2Cc3ccccc3C2)cc1C(N)=O` [Example 5, 2-[(Aminocarbonyl)amino]-5-[2-{2-(1,3-dihydro-2H-isoindol-2-yl)ethoxy}phenyl]thiophene-3-carboxamide]: the IC50 on IKK-2 worked out at 150 nM. In addition, the efflux ratio at 120 min, 10 μM in data set [1] was 0.66. Besides, the “Caco-2 Assay Papp” value in the data set with Caco-2 cell monolayers is given as 14.3.

As for `NC(=O)Nc1sc(-c2ccccc2OC2CCN(Cc3ccccc3)C2)cc1C(N)=O` (stereo not drawn) [Example 7, 2-[(Aminocarbonyl)amino]-5-[2-{[1-benzylpyrrolidin-3-yl]oxy}phenyl]thiophene-3-carboxamide], the IC50 at IKK-2 came out at 40 nM. Moreover, the efflux ratio at 120 min, 10 μM in data set [1] stood at 1.07. For the same compound, the “Caco-2 Assay Papp” value in the data set on Caco-2 cell monolayers was 15.7.

With `NC(=O)Nc1cc(-c2ccccc2OCCN2Cc3ccccc3C2)sc1C(N)=O` [Example 13, 3-[(Aminocarbonyl)amino]-5-[2-{2-(1,3-dihydro-2H-isoindol-2-yl)ethoxy}phenyl]thiophene-2-carboxamide], the IC50 on IKK-2 was 1430 nM. In addition, in data set [1], the efflux ratio at 120 min, 10 μM turned out to be 1.26. Further, in the data set with Caco-2 cell monolayers, the “Caco-2 Assay Papp” value was determined as 23.6.
